Key:
NSP13 E319A = type: biochemical, SARS-CoV-2
NSP13 E375A = type: biochemical, SARS-CoV-2

In the case of `O=C1O[C@@H]2[C@@H](OC(=O)c3cc(O)c(O)c(O)c3-c3c1cc(O)c(O)c3O)[C@H](O)O[C@@H]1COC(=O)c3cc(O)c(O)c(O)c3-c3c(O)c(O)c4oc(=O)c5c(c(O)c(O)c6oc(=O)c3c4c65)-c3c(cc(O)c(O)c3O)C(=O)O[C@@H]21` [Punicalagin, 2,3-hexahydroxydiphenoyl-gallagyl-D-glucose], the “reduction of the inhibitory potency compared to wild type” value (NSP13 E319A) was “about 2 fold” and the “reduction of the inhibitory potency compared to wild type” value (NSP13 E375A) was “about 2 fold”.

— article PMC9381947 (Antiviral Research, 2022)
